Data published in ChEMBL document CHEMBL3885861, “Open TG-GATES”.

Species: Rattus norvegicus
Assay: Open TG-GATES - Regimen: Daily Repeat
Assay type: toxicity, organism-based, Sprague-Dawley
Design: regimen Daily Repeat, gender Male, age 6 weeks
Details: in vivo, po, 30 mg/kg, route gavage, dose level Middle; for KIDNEY_L / KIDNEY_R / KIDNEY_TOTAL: tissue Kidney; for AST / CRE / GLC / IP / K / LDH / RALB / TBIL / TC / TP / gamma-GTP: tissue Plasma

## CN(C)CCCN1c2ccccc2CCc2ccccc21 [IMIPRAMINE]
72 h, time 3 day
  TERMINAL_BW: 214.6 g
  KIDNEY_L: 0.9 g
  KIDNEY_R: 0.9 g
  KIDNEY_TOTAL: 1.8 g
  AST: 58.8 IU/L
  CRE: 0.2 mg/dL
  GLC: 182.4 mg/dL
  IP: 7.6 mg/dL
  K: 4.3 meq/L
  LDH: 90.4 IU/L
  RALB: 2.6 g/dL
  TBIL: 0.058 mg/dL
  TC: 77 mg/dL
  TP: 5.9 g/dL
  gamma-GTP: 1 IU/L
72 h, tissue Blood, time 3 day
  APTT: 16.4 s
  Bas: 0%
  Eos: 1.4%
  Fbg: 303.4 mg/dL
  Ht: 44.3%
  Lym: 83.8%
  MCHC: 33%
  MCV: 61.8 fL
  Mono: 2%
  Neu: 12%
  PT: 16.9 s
  Plat: 115.8 x10_4/uL
  RBC: 717.2 x10_4/ul
  Ret: 3.2%
[…], time 7 day
  TERMINAL_BW: 244.7 g
  KIDNEY_L: 1.1 g
  KIDNEY_R: 1.1 g
  KIDNEY_TOTAL: 2.1 g
  AST: 59 IU/L
  CRE: 0.2 mg/dL
  GLC: 173 mg/dL
  IP: 7 mg/dL
  K: 4.2 meq/L
  LDH: 88.8 IU/L
  RALB: 2.5 g/dL
  TBIL: 0.044 mg/dL
  TC: 85 mg/dL
  TP: 5.8 g/dL
  gamma-GTP: 0.4 IU/L
[…], time 14 day
  TERMINAL_BW: 294.7 g
  KIDNEY_L: 1.2 g
  KIDNEY_R: 1.2 g
  KIDNEY_TOTAL: 2.4 g
  AST: 53.6 IU/L
  CRE: 0.2 mg/dL
  GLC: 170.8 mg/dL
  IP: 6.9 mg/dL
  K: 4.3 meq/L
  LDH: 100.6 IU/L
  RALB: 2.6 g/dL
  TBIL: 0.046 mg/dL
  TC: 88.2 mg/dL
  TP: 5.9 g/dL
  gamma-GTP: 0.6 IU/L
[…], time 28 day
  TERMINAL_BW: 362.7 g
  KIDNEY_L: 1.3 g
  KIDNEY_R: 1.3 g
  KIDNEY_TOTAL: 2.7 g
  AST: 53.8 IU/L
  CRE: 0.2 mg/dL
  GLC: 164.6 mg/dL
  IP: 7 mg/dL
  K: 4 meq/L
  LDH: 45.4 IU/L
  RALB: 2.7 g/dL
  TBIL: 0.056 mg/dL
  TC: 73.8 mg/dL
  TP: 6.3 g/dL
  gamma-GTP: 1 IU/L
[…], tissue Blood, time 7 day
  APTT: 16.2 s
  Bas: 0%
  Eos: 1%
  Fbg: 323.8 mg/dL
  Ht: 41.6%
  Lym: 78.6%
  MCHC: 33%
  MCV: 61.3 fL
  Mono: 2%
  PT: 16.1 s
  Plat: 118.6 x10_4/uL
  RBC: 678.2 x10_4/ul
  Ret: 3.9%
[…], tissue Blood, time 14 day
  APTT: 16.3 s
  Bas: 0%
  Eos: 1.2%
  Fbg: 303.2 mg/dL
  Ht: 42.5%
  Lym: 75.8%
  MCHC: 33.4%
  MCV: 59.7 fL
  Mono: 2.6%
  PT: 16.3 s
  Plat: 107.7 x10_4/uL
  RBC: 712.4 x10_4/ul
  Ret: 4.3%
[…], tissue Blood, time 28 day
  APTT: 16.2 s
  Bas: 0.2%
  Eos: 1.2%
  Fbg: 305.2 mg/dL
  Ht: 45.7%
  Lym: 80.4%
  MCHC: 33.7%
  MCV: 57.1 fL
  Mono: 2%
  PT: 16.3 s
  Plat: 101.3 x10_4/uL
  RBC: 801 x10_4/ul
  Ret: 2.4%
